Six molecules from patent publication US20140242093A1, “METHODS AND COMPOSITIONS FOR MODULATING THE INNATE IMMUNE RESPONSE AND/OR MYOGENESIS IN A MAMMALIAN SUBJECT” (FRED HUTCHINSON CANCER RESEARCH CENTER, priority 2011, published 2014) can be followed below.

The subject of test [1] is FSHD fibroblasts. Nature of the test: DUX4 mRNA decay with cycloheximide in FSHD fibroblasts with inducible MyoD. The test is classed as cell-based, human. To be noted: 38 hours in differentiation conditions, MyoD induction. How it is done:
FSHD fibroblasts expressing low amounds of DUX4 mRNA were stably transduced with a beta-estradiol inducible MyoD so that addition of beta-estradiol will convert them to skeletal muscle, which after 96 hours of induction increases the steady-state levels of the DUX4 mRNA and activates expression of the MyoD target Mgn. […] Washout of the chx results in the rapid loss of the DUX4 mRNA, disappearing between 2 and 8 hrs of washout. The loss of DUX4 mRNA is associated with its translation since the DUX4 target PRAME 1 is induced as the DUX4 mRNA disappears.

Test [2] deals with control human primary myoblasts. Nature of the test: Expression microarray of primary myoblasts transduced with lentivirus carrying DUX4-fl, DUX4-s or GFP. How it is done: Primary human myoblasts were collected and cultured as previously described (Snider et al., 2010). Primary myoblasts were maintained at or below 70% confluency for proliferation. For differentiation, cells were allowed to reach 95-100% confluency in growth medium. Once confluency was reached, the cells were changed to differentiation medium (F10 media supplemented with 1% horse serum, 10 μg/mL insulin, and 10 μg/mL transferrin, penicillin/streptomycin) and maintained for 4 days. Human RD cells were grown in DMEM in 10% bovine calf serum (Hyclone) and penicillin/streptomycin. The primary myoblasts were transduced with lentivirus carrying DUX-fl, DUX4- or GFP (MOI=15).
Expression microarrays were performed on the transduced cells at 24 hours after transduction as follows. […] Samples were analyzed by Illumina Human Whole Genome microarrays. Probe intensities were corrected, normalized, and summarized by the Lumi package of Bioconductor (Du et al., 2008). Differentially expressed genes were identified by the LIMMA package of Bioconductor (Wettenhall and Smyth, 2004). Gene set enrichment analysis (GSEA) was performed using the Bioconductor GOstats package (Falcon and Gentleman, 2007).

Test [3] deals with Human FSHD myoblasts. Briefly: siRNA knock-down of UPF1 in FSHD myoblasts. The format is cell-based. Here is the method: Method for transfection of myoblasts with siUPF1 (siRNA against UPF1): Human FSHD myoblasts were plated for transfection at 30% confluency in F10 media containing 20% FBS and no antibiotics. siRNA targeting siUPF1 (ThermoScientific) was transfected at 100 nM final concentration using Lipofectamine 2000 according to manufacturers protocol. siLuciferase was used as a negative control. Following overnight incubation of cells with transfection complexes the cells were washed with PBS and fed fresh growth media: F10 media, 20% FBS, dexamethasone (1 uM) and fgf (10 ng/ml). When cultures reached confluency growth media was replaced with serum free differentiation media (F10 media, insulin and transferrin at 10 ug/ml each) and culture continued for 48 hours. Total RNA was isolated using Qiagen RNeasy columns and analysis for expression of Dux4 mRNA and for target gene activation was performed.

Test [4] deals with HCT116 cells. Briefly: RT-PCR of DUX4-fl and cancer testis antigens in HCT116 cells treated with azacytidine. The test is classed as cell-based, human. How it is done:
The relative expression of the CTA in each row was measured by RT-PCR and represented as high (light shading) or low (dark shading).

Test [5] deals with FSHD muscle cells. Briefly: DUX4-fl mRNA RT-PCR in FSHD muscle cells treated with MAO inhibitors. The format is cell-based, human. To be noted: for abundance of DUX4-fl mRNA: quantitative RT-PCR, FIG. 4. The source says:
Middle panel is a no RT control and bottom panel is a GAPDH loading control.

In the case of `C[C@@H]1C[C@@H]([C@H](O)CC2CC(=O)NC(=O)C2)C(=O)[C@@H](C)C1` [cycloheximide], the “DUX4 mRNA” value in test [1] is listed as “significant increase in DUX4 mRNA”.
In the case of DUX4, the Fc range is recorded as 9-19 in test [2] (Family with sequence similarity 90: FAM90A1, FAM90A2P, FAM90A6P, FAM90A7); 108-258 in test [2] (KH homology domain containing family: KHDC1, KHDC1L); 197-310 in test [2] (Methyl-binding protein-like family: MBD3L2, MBD3L3, MBD3L5); 9-269 in test [2] (Preferentially expressed in melanoma family: PRAMEF1, PRAMEF2, PRAMEF4-15, PRAMEF17, PRAMEF20); 20-336 in test [2] (Ret-finger Protein-like family: RFPL1, RFPL1S, RFPL2, RFPL3, RFPL4A, RFPL4B); 27-235 in test [2] (Tripartite motif-containing family: TRIM43, TRIM48, TRIM49, TRIM53, TRIM64). The Fc range in test [2] (Zinc finger and SCAN domain containing family: ZSCAN4, ZSCAN5B, ZSCAN5D) is recorded as 13-320.
For GAUGCAGUUCCGCUCCAUUUU [siUPF1], the “expression of DUX4 target gene ZSCAN4” value in test [3] (RT-qPCR) is given as “increases”. Besides, in test [3] (semiquantitative RT-PCR, differentiation medium, vs siluc), the “DUX4 mRNA” value is given as “at higher levels”.
With `Nc1ncn([C@@H]2O[C@H](CO)[C@@H](O)[C@H]2O)c(=O)n1` [5-azacytidine], in test [4] (RT-PCR heat map FIG. 3, HCT116 cells), the “expression of cancer testis antigens” value is “robust induction”. Further, the DUX4-fl expression entry in test [4] (RT-PCR, HCT116 cells) is “induces the expression of DUX4-fl”.
Regarding `N[C@@H]1C[C@H]1c1ccccc1` (racemic) [tranylcypromine], in test [5], the “abundance of DUX4-fl mRNA” value is reported as “had no inhibitory effect”.
`C#CCN(C)Cc1ccccc1` [pargyline, N-Benzyl-N-methylprop-2-yn-1-amine]: the “DUX4 mRNA expression” value in test [5] (RT-PCR, 48 hours in differentiation medium, varying amounts, FIG. 5) was “dose-dependent inhibition of DUX4 expression”. In addition, the “abundance of DUX4-fl mRNA” value in test [5] is on record as “decreases the abundance of DUX4-fl mRNA in a dose-dependent manner”.
